Results as given in patent US20180265515A1 (Genentech, Inc., priority 2015, published 2018).

Experiments:
[1] = molecular target: T1, isolated recombinant JAK1 kinase domain (Homo sapiens, UniProt P23458); assay: JAK1 enzyme assay (Caliper LabChip, Ki); format: biochemical; settings: recombinant JAK1 kinase domain, 25 μM ATP
T1 construct: The activity of the isolated recombinant JAK1 and JAK2 kinase domain was measured
Method in brief: (§1)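 Caliper LabChip read-out: fraction of FAM-labeled JAK3-derived peptide converted to phosphopeptide by isolated JAK1/JAK2 kinase domain. Reaction 30 min, 22° C; stopped with EDTA, 50 mM final. Ki via Morrison tight-binding model, Ki=Ki,app/(1+[ATP]/Km,app).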

[2] = molecular target: T2, isolated recombinant JAK2 kinase domain (Homo sapiens, UniProt O60674); assay: JAK2 enzyme assay (Caliper LabChip, Ki); format: biochemical; settings: 25 μM ATP
T2 construct: The activity of the isolated recombinant JAK1 and JAK2 kinase domain was measured
Method in brief: as §1

[3] = test system: JAK1-dependent STAT6 phosphorylation downstream of IL-13 stimulation in BEAS-2B human bronchial epithelial cells; assay: JAK1 pathway assay in BEAS-2B cells (IL-13 stimulated STAT6 phosphorylation, MSD); format: cell-based; settings: read-out: P-STAT6 BEAS2B + IL13 IC50
Method in brief: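 BEAS-2B human bronchial epithelial cells, plated the day before in complete growth medium, were preincubated with compound for 1 hr at 37° C (0.2% DMSO final), then stimulated with IL-13 at its EC90 for 15 min. STAT6 phosphorylation in lysates was read by MSD; EC50 was taken as 50% inhibition versus DMSO control.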

T1 sequence (P23458 875-1153 limits assumed): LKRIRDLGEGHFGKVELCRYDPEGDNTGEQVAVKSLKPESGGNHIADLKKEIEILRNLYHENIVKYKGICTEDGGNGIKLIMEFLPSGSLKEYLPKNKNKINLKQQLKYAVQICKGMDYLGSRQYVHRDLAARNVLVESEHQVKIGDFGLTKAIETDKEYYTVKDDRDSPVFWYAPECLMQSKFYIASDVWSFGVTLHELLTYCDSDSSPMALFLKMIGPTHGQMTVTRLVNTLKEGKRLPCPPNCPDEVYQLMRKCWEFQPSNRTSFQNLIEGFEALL
T2 sequence (O60674 849-1124 limits assumed): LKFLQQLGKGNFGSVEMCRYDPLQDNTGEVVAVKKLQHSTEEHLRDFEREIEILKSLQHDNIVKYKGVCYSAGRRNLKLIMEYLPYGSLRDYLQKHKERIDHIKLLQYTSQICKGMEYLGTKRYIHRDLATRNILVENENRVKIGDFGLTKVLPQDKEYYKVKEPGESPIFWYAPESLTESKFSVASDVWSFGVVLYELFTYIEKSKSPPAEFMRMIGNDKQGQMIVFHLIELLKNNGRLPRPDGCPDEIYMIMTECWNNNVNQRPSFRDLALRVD

Row | Ki [1] | Ki [2] | Structure (SMILES) | IC50 [3]
1 | 0.32 nM | 0.49 nM | CSc1ccc(OC(F)F)c(-c2nn(CC(=O)N3CCC(N4CCN(CC(=O)N5CCOCC5)CC4)CC3)cc2NC(=O)c2cnn3cccnc23)c1 [Example 88, N-[3-[2-(difluoromethoxy)-5-methylsulfanyl-phenyl]-1-[2-[4-[4-(2-morpholino-2-oxo-ethyl)piperazin-1-yl]-1-piperidyl]-2-oxo-ethyl]pyrazol-4-yl]pyrazolo[1,5-a]pyrimidine-3-carboxamide] | 470 nM
2 | 0.51 nM | 0.78 nM | CSc1ccc(OC(F)F)c(-c2nn(CC(=O)N3CCN(C4CCN(CC(=O)N(C)C)CC4)CC3)cc2NC(=O)c2cnn3cccnc23)c1 [Example 89, N-[3-[2-(difluoromethoxy)-5-methylsulfanyl-phenyl]-1-[2-[4-[1-[2-(dimethylamino)-2-oxo-ethyl]-4-piperidyl]piperazin-1-yl]-2-oxo-ethyl]pyrazol-4-yl]pyrazolo[1,5-a]pyrimidine-3-carboxamide] | 200 nM
3 | 0.32 nM | 0.14 nM | CSc1ccc(OC(F)F)c(-c2nn(Cc3cn(C4CCN(C5COC5)CC4)nn3)cc2NC(=O)c2cnn3cccnc23)c1 [Example 90, N-[3-[2-(difluoromethoxy)-5-methylsulfanyl-phenyl]-1-[[1-[1-(oxetan-3-yl)-4-piperidyl]triazol-4-yl]methyl]pyrazol-4-yl]pyrazolo[1,5-a]pyrimidine-3-carboxamide] | 22 nM
4 | 0.13 nM | 0.071 nM | CSc1ccc(OC(F)F)c(-c2nn(C)cc2NC(=O)c2cnn3cccnc23)c1 [Example 91, N-[3-[2-(difluoromethoxy)-5-methylsulfanyl-phenyl]-1-methyl-pyrazol-4-yl]pyrazolo[1,5-a]pyrimidine-3-carboxamide] | 3.9 nM
5 | 0.61 nM | 0.77 nM | CSc1ccc(OC(F)F)c(-c2nn(CC(=O)N3CCC(N(CCN4CCOCC4)C4COC4)CC3)cc2NC(=O)c2cnn3cccnc23)c1 [Example 92, N-[3-[2-(difluoromethoxy)-5-methylsulfanyl-phenyl]-1-[2-[4-[2-morpholinoethyl(oxetan-3-yl)amino]-1-piperidyl]-2-oxo-ethyl]pyrazol-4-yl]pyrazolo[1,5-a]pyrimidine-3-carboxamide] | 1000 nM
6 | 0.44 nM | 0.71 nM | CSc1ccc(OC(F)F)c(-c2nn(CC(=O)N3CCN(CC4CCN(CC(=O)N5CCOCC5)CC4)CC3)cc2NC(=O)c2cnn3cccnc23)c1 [Example 93, N-[3-[2-(difluoromethoxy)-5-methylsulfanyl-phenyl]-1-[2-[4-[[1-(2-morpholino-2-oxo-ethyl)-4-piperidyl]methyl]piperazin-1-yl]-2-oxo-ethyl]pyrazol-4-yl]pyrazolo[1,5-a]pyrimidine-3-carboxamide] | 26 nM
7 | 0.46 nM | 0.63 nM | CSc1ccc(OC(F)F)c(-c2nn(CC(=O)N3CCC(CN4CCN(CC(=O)N(C)C)C[C@@H]4C)CC3)cc2NC(=O)c2cnn3cccnc23)c1 [Example 94, N-[3-[2-(difluoromethoxy)-5-methylsulfanyl-phenyl]-1-[2-[4-[[(2S)-4-[2-(dimethylamino)-2-oxo-ethyl]-2-methyl-piperazin-1-yl]methyl]-1-piperidyl]-2-oxo-ethyl]pyrazol-4-yl]pyrazolo[1,5-a]pyrimidine-3-carboxamide] | 62 nM
8 | 0.37 nM | 0.68 nM | CSc1ccc(OC(F)F)c(-c2nn(CC(=O)N3CCC(CN4CCNCC4)CC3)cc2NC(=O)c2cnn3cccnc23)c1 [Example 95, N-[3-[2-(difluoromethoxy)-5-methylsulfanyl-phenyl]-1-[2-oxo-2-[4-(piperazin-1-ylmethyl)-1-piperidyl]ethyl]pyrazol-4-yl]pyrazolo[1,5-a]pyrimidine-3-carboxamide] | 150 nM
